The target of assay [1] is T1, Agt1 (AGT1 from ale strain A179) (Saccharomyces cerevisiae, UniProt P53048).
T1 sequence (P53048 1-616): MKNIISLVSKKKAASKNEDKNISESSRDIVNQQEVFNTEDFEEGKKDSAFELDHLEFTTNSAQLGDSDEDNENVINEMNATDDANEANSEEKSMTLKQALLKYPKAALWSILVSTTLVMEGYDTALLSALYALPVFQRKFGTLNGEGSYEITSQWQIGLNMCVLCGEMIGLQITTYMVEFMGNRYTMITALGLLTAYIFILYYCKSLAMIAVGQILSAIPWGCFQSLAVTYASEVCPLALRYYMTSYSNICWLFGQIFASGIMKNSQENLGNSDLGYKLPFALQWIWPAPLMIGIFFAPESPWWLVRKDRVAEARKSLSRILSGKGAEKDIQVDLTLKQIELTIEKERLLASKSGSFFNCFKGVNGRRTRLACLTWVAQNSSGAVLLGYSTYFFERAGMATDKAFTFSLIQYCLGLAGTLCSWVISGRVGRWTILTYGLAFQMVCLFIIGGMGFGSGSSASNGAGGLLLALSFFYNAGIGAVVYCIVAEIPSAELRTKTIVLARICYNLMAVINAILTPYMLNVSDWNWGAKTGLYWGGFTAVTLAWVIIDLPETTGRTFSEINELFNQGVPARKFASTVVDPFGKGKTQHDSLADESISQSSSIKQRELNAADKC
Description: inhibition of […]-maltose uptake into intact yeast transformants. The format is cell-based.

Assay [2] has as its target T2, Agt1 (AGT1 from ale strain A60) (Saccharomyces cerevisiae, UniProt P53048).
T2 sequence (P53048 1-616): T1 sequence (P53048 1-616)
Described as above. The format is cell-based.

Setting [3] is: read-out: % inhibition at 75 mM.
The mark [4] stands for this setting: read-out: % inhibition at 50 mM.

The inhibition is the percentage by which the read-out fell short of the control.

For `OC[C@H]1O[C@H](O[C@H]2O[C@H](CO)[C@@H](O)[C@H](O)[C@H]2O)[C@H](O)[C@@H](O)[C@@H]1O` [trehalose], the inhibition at 75000 µM amounted to 85% in assay [1] (setting [3]) and 94% in assay [2] (setting [3]).

For the compound `OC[C@H]1O[C@H](O[C@H]2[C@H](O)[C@@H](O)[C@@H](O[C@H]3[C@H](O)[C@@H](O)C(O)O[C@@H]3CO)O[C@@H]2CO)[C@H](O)[C@@H](O)[C@@H]1O` (stereo partly shown) [maltotriose], the inhibition at 50000 µM worked out at 79% in assay [1] (setting [4]) and 85% in assay [2] (setting [4]).

These data come from publication PMC2878602 (Fems Yeast Research, 2010).
